Converted amounts (≈) assume the structure as drawn.
Legend:
Hep G2 = assay: MTT solid tumor cell proliferation inhibition, Hep G2; format: cell-based; settings: Homo sapiens, HepG2
Experimental: (§1) Human solid tumor cell lines: Hep-2 (laryngeal carcinoma), A549 (human lung cancer), CaES-17 (esophageal cancer cell), PC-3 (prostate cancer), CNE (nasopharyngeal carcinoma cell), and SK-OV-3 (ovarian cancer cell), all of which are purchased from China Center For Type Culture Collection; RKO (human colon adenocarcinoma cell), MGC 803 (human gastric cancer cell), MG63 (osteosarcoma) and U87 MG (malignant glioma cell), all of which are purchased from Fuxiang Bio-tech Co. Ltd., Shanghai, China; PANC-1 (pancreatic cancer), Hep G2 (human liver cancer cell), Becap37 (human breast cancer cell), and Hela (human cervical cancer cell), all of which are donated by Cancer Research Institute of Zhejiang University, China.
(§2) Obtaining 4000 well-growing human solid tumor cells and inoculating them into wells of a 96-well cell culture plate. The culture medium is DMEM High Glucose cell culture medium containing 10% fetal bovine serum. The plate is placed in a carbon dioxide cell incubator (5% CO2) at 37° C. for 24 hours for incubation. After being added with the amidated oleanolic acid derivatives of different concentrations and mixed uniformly, the plate is placed in a carbon dioxide cell incubator (5% CO2) at 37° C. for 72 hours for incubation. Then the relative number of the living cells is determined by the MTT method. In this experiment, the cell proliferation inhibition rate in control group (not treated with any compound) is set as 0%.

H9 = assay: MTT leukemia cell proliferation inhibition, H9; format: cell-based, human
Description: (§3) Leukemia cell lines: leukemia cell lines: K562/adr (drug-resistant, chronic myeloid leukemia, CML), NB4 (acute promyelocytic leukemia, AML), Kasumi-1 (acute myeloid leukemia M2 type, AML-M2), Jurkat (acute lymphoblastic leukemia, ALL), all of which are donated by Cancer Research Institute of Zhejiang University, China; and H9 (acute lymphoblastic leukemia, ALL), which is purchased from China Center for Type Culture Collection (CCTCC).
(§4) Reagents: The standard sample of oleanolic acid (OA) is purchased from Hua Kang Pharmaceutical Raw Material Factory, Shifang City, Sichuan, China; and the amidated oleanolic acid derivatives are prepared according to the present invention.
(§5) Obtaining 6000 well-growing leukemia cells and inoculating them into wells of a 96-well cell culture plate. The culture medium is the 1640 cell culture medium containing 10% fetal bovine serum. After adding the amidated oleanolic acid derivatives of different concentrations and mixing uniformly, placing the plate in a carbon dioxide cell incubator (5% CO2) at 37° C. and incubated for 72 hours. Then the relative number of viable cells is determined by the MTT method. In this experiment, the cell proliferation inhibition rate in control group (not treated with any compound) is set as 0%.

U87 MG = assay: MTT solid tumor cell proliferation inhibition, U87 MG; format: cell-based, human; settings: Homo sapiens, U-87 MG, U87 MG, 72 h
Experimental: as §1, §2

SK-OV-3 = assay: MTT solid tumor cell proliferation inhibition, SK-OV-3; format: cell-based, human; settings: Homo sapiens
Experimental: as §1, §2

PC-3 = assay: MTT solid tumor cell proliferation inhibition, PC-3; format: cell-based, human
Experimental: as §1, §2

Becap37 = assay: MTT solid tumor cell proliferation inhibition, Becap37; format: cell-based; settings: Homo sapiens
Experimental: as §1, §2

Kasumi-1 = assay: MTT leukemia cell proliferation inhibition, Kasumi-1; format: cell-based; settings: Homo sapiens
Description: as §3, §4, §5

Jurkat = assay: MTT leukemia cell proliferation inhibition, Jurkat; format: cell-based; settings: Homo sapiens, 72 h
Description: as §3, §4, §5

RPMI8226 = assay: MTT multiple myeloma cell proliferation inhibition, RPMI8226; format: cell-based; settings: Homo sapiens, RPMI-8226
Experimental: Multiple myeloma cell lines: RPMI8226 (multiple myeloma), purchased from Fuxiang Bio-tech Co. Ltd., Shanghai, China.
as §5

CaES-17 = assay: MTT solid tumor cell proliferation inhibition, CaES-17; format: cell-based, human; settings: Homo sapiens, CaEs17
Experimental: as §1, §2

PANC-1 = assay: MTT solid tumor cell proliferation inhibition, PANC-1; format: cell-based, human; settings: Homo sapiens
Experimental: as §1, §2

Hep-2 = assay: MTT solid tumor cell proliferation inhibition, Hep-2; format: cell-based, human; settings: Homo sapiens
Experimental: as §1, §2

NB4 = assay: MTT leukemia cell proliferation inhibition, NB4; format: cell-based; settings: Homo sapiens, NB-4
Description: as §3, §4, §5

MGC803 = assay: MTT solid tumor cell proliferation inhibition, MGC803; format: cell-based, human; settings: Homo sapiens, MGC-803
Experimental: as §1, §2

RKO = assay: MTT solid tumor cell proliferation inhibition, RKO; format: cell-based; settings: Homo sapiens, 72 h
Experimental: as §1, §2

A549 = assay: MTT solid tumor cell proliferation inhibition, A549; format: cell-based, human; settings: Homo sapiens
Experimental: as §1, §2

CNE = assay: MTT solid tumor cell proliferation inhibition, CNE; format: cell-based, human; settings: Homo sapiens, CNE, 72 h
Experimental: as §1, §2

Hela = assay: MTT solid tumor cell proliferation inhibition, Hela; format: cell-based, human; settings: Homo sapiens, Hela, 72 h
Experimental: as §1, §2

K562/adr = assay: MTT leukemia cell proliferation inhibition, K562/adr; format: cell-based; settings: Homo sapiens, 72 h
Description: as §3, §4, §5

MG 63 = assay: MTT solid tumor cell proliferation inhibition, MG 63; format: cell-based, human
Experimental: as §1, §2

[1] = 16 μg/mL compound, read-out: IR (inhibition rate)

CC1(C)CC[C@]2(NC(=O)C3CC3)CC[C@]3(C)C(=CC[C@@H]4[C@@]5(C)CC[C@H](O)C(C)(C)[C@@H]5CC[C@]43C)[C@@H]2C1 [BS-OA-097]
inhibition at 16 µg/mL (Hep G2; Hep G2, 16 μg/mL compound, 72 h, read-out: IR (inhibition rate)): 35.1%
IC50 (Hep G2; Hep G2, 72 h, MTT): > 16 µg/mL
improvement of cell inhibition rate as compared with oleanolic acid (H9; H9 cells): ~4 fold
inhibition at 16 µg/mL (H9; Homo sapiens, H9, 16 μg/mL compound, 72 h, read-out: IR (inhibition rate)): 85.3%
IC50 (H9; Homo sapiens, H9, 72 h, MTT): 6.3 µg/mL (≈ 12.7 µM)
inhibition at 16 µg/mL (U87 MG; [1]): 37.4%
IC50 (U87 MG; MTT): > 16 µg/mL
inhibition at 16 µg/mL (SK-OV-3; SK-OV-3, 16 μg/mL compound, 72 h, read-out: IR (inhibition rate)): 68.9%
IC50 (SK-OV-3; SK-OV-3, 72 h, MTT): 7.63 µg/mL (≈ 15.4 µM)
inhibition at 16 µg/mL (PC-3; Homo sapiens, PC-3, 16 μg/mL compound, 72 h, read-out: IR (inhibition rate)): 56.6%
IC50 (PC-3; Homo sapiens, PC-3, 72 h, MTT): 13.1 µg/mL (≈ 26.3 µM)
improvement of cell inhibition rate as compared with oleanolic acid (PC-3; PC-3 cells): ~2 fold
inhibition at 16 µg/mL (Becap37; Becap37, 16 μg/mL compound, 72 h, read-out: IR (inhibition rate)): 41.3%
IC50 (Becap37; Becap37, 72 h, MTT): > 16 µg/mL
inhibition at 16 µg/mL (Kasumi-1; Kasumi-1, 16 μg/mL compound, 72 h, read-out: IR (inhibition rate)): 42.9%
IC50 (Kasumi-1; Kasumi-1, 72 h, MTT): > 16 µg/mL
inhibition at 16 µg/mL (Jurkat; [1]): 56.6%
IC50 (Jurkat; MTT): 14.3 µg/mL (≈ 28.9 µM)
inhibition at 16 µg/mL (RPMI8226; RPMI8226, 16 μg/mL compound, 72 h, read-out: IR (inhibition rate)): 95.3%
IC50 (RPMI8226; RPMI8226, 72 h, MTT): 3.51 µg/mL (≈ 7.08 µM)
inhibition at 16 µg/mL (CaES-17; CaES-17, 16 μg/mL compound, 72 h, read-out: IR (inhibition rate)): 45.7%
IC50 (CaES-17; CaES-17, 72 h, MTT): 18.9 µg/mL (≈ 38.1 µM)
inhibition at 16 µg/mL (PANC-1; PANC-1, 16 μg/mL compound, 72 h, read-out: IR (inhibition rate)): 38.8%
IC50 (PANC-1; PANC-1, 72 h, MTT): > 16 µg/mL
inhibition at 16 µg/mL (Hep-2; Hep-2, 16 μg/mL compound, 72 h, read-out: IR (inhibition rate)): 28.5%
IC50 (Hep-2; Hep-2, 72 h, MTT): > 16 µg/mL
inhibition at 16 µg/mL (NB4; NB4, 16 μg/mL compound, 72 h, read-out: IR (inhibition rate)): 93.4%
IC50 (NB4; NB4, 72 h, MTT): 6.51 µg/mL (≈ 13.1 µM)
inhibition at 16 µg/mL (MGC803; MGC803, 16 μg/mL compound, 72 h, read-out: IR (inhibition rate)): 56.1%
IC50 (MGC803; MGC803, 72 h, MTT): 14.4 µg/mL (≈ 29 µM)
inhibition at 16 µg/mL (RKO; [1]): 29%
IC50 (RKO; MTT): > 16 µg/mL
inhibition at 16 µg/mL (A549; A549, 16 μg/mL compound, 72 h, read-out: IR (inhibition rate)): 38.1%
IC50 (A549; A549, 72 h, MTT): > 16 µg/mL
inhibition at 16 µg/mL (CNE; [1]): 40%
IC50 (CNE; MTT): > 16 µg/mL
inhibition at 16 µg/mL (Hela; [1]): 64.4%
IC50 (Hela; MTT): 11.9 µg/mL (≈ 24 µM)
inhibition at 16 µg/mL (K562/adr; [1]): 91.3%
IC50 (K562/adr; MTT): 2.4 µg/mL (≈ 4.84 µM)
IC50 (MG 63; Homo sapiens, MG 63, 72 h, MTT): 13.2 µg/mL (≈ 26.5 µM)
IR (inhibition rate) (MG 63; MG 63, 16 μg/mL compound, 72 h): 78.6%

Reference: patent US8987502B2, “Oleanolic acid amidate derivatives, preparation methods and uses thereof” (Hangzhou Bensheng Pharmaceutical Co., Ltd., priority 2011, dated 2015)
